Here are results for 23 compounds from patent US7960377B2 (priority 2008, dated 2011).

Where two headings read alike, the source gives them in different places.

What all share (assay): cell-based
One assay has as its target human CB1 receptor (Homo sapiens, UniProt P21554).
Another assay addresses T1, rat CB2 receptor (Rattus norvegicus, UniProt Q9QZN9).
T1 sequence (Q9QZN9 1-360): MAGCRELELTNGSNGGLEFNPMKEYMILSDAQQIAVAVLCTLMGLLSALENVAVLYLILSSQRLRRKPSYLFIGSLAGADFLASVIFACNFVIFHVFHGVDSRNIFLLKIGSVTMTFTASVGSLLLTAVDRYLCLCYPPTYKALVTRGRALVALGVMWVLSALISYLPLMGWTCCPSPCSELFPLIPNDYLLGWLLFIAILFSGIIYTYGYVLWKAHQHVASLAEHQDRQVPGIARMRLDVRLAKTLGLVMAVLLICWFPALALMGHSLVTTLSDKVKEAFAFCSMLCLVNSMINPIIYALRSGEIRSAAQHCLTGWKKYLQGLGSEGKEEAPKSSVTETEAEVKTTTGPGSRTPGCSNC
The assay is classed as cell-based. To be noted: for inverse agonist mark, rat CB2 receptor: asterisk at the compound number.

Another assay has as its target human CB2 receptor (Homo sapiens, UniProt P34972). The assay is classed as cell-based. To be noted: for inverse agonist mark, human CB2 receptor: asterisk at the compound number.
[1] abbreviates: change in intracellular cAMP, CHO-K1 hCB2 cells, class AR, read-out: EC50 values for human CB2 receptor.

Chain of human CB2 receptor (P34972 whole entry): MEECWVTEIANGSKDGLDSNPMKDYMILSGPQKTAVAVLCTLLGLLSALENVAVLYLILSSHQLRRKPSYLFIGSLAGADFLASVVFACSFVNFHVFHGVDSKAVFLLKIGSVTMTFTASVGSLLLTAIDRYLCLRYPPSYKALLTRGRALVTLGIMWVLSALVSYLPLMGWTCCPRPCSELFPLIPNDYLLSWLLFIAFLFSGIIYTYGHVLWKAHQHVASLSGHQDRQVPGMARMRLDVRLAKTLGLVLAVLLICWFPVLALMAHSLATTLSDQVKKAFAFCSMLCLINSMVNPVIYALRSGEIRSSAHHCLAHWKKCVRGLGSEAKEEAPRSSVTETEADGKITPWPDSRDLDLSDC
Chain of human CB1 receptor (P21554 whole entry): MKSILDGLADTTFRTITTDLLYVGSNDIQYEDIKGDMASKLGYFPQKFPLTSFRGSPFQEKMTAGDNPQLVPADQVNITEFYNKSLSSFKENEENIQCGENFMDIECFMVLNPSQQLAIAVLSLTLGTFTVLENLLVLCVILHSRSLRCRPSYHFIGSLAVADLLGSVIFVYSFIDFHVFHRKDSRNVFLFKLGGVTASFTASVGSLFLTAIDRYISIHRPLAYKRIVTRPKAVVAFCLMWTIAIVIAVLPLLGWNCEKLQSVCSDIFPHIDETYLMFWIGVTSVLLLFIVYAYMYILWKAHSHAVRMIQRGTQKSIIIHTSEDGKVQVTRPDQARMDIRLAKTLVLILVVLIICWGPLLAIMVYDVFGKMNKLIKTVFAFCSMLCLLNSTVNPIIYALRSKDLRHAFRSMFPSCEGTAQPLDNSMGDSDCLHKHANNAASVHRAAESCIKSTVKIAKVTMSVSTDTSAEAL

Consider `O=C(c1cnc2c(c1)N(S(=O)(=O)c1ccccc1)CCO2)N1CCOCC1` [Example 4, morpholino(1-(phenyl-sulfonyl)-2,3-dihydro-1H-pyrido[2,3-b][1,4]oxazin-7-yl)methanone], for which the EC50 on human CB1 receptor, on rat CB2 receptor and on human CB2 receptor (setting [1]) was over 30 µM in each case.
In the case of `CNC(=O)[C@@H](NC(=O)c1cnc2c(c1)N(S(=O)(=O)c1ccccc1)CCO2)C(C)(C)C` [Example 6, (S)-N-(3,3-dimethyl-1-(methylamino)-1-oxobutan-2-yl)-1-(phenyl-sulfonyl)-2,3-dihydro-1H-pyrido[2,3-b][1,4]oxazine-7-carboxamide], the values for the EC50 on human CB1 receptor, on rat CB2 receptor and on human CB2 receptor were over 30 µM, at most 0.03 µM and over 30 µM, respectively. For the same compound, the “inverse agonist mark, rat CB2 receptor” value on rat CB2 receptor was 2, 3, 6*, 7, 8, 10, 11, 12, 15*, 20, 21, 22, 23, 24, 25, 26, 27, 33, 39,.
`CNC(=O)[C@@H](NC(=O)c1cnc2c(c1)N(S(=O)(=O)c1ccc(F)cc1)CCO2)C(C)(C)C` [Example 15, (S)-N-(3,3-dimethyl-1-(methylamino)-1-oxobutan-2-yl)-1-(4-fluorophenyl-sulfonyl)-2,3-dihydro-1H-pyrido [2,3-b][1,4]oxazine-7-carboxamide] came in with an EC50 at human CB1 receptor of over 30 µM. For the same compound, at rat CB2 receptor, the EC50 is at most 0.03 µM and the “inverse agonist mark, rat CB2 receptor” value is recorded as 2, 3, 6*, 7, 8, 10, 11, 12, 15*, 20, 21, 22, 23, 24, 25, 26, 27, 33, 39,. The “inverse agonist mark, human CB2 receptor” value on human CB2 receptor was 1, 5, 9, 12, 14, 15*, 28, 29, 34, 35, 36, 37, 41, 44, 49, 50, 51, 54, 56,.
Turning to `CC(C)(C)N(CCCN)C(=O)c1cnc2c(c1)N(S(=O)(=O)c1ccc(C(F)(F)F)cc1)CCO2` [Example 45, N-(3-aminopropyl)-N-tert-butyl-1-(4-(trifluoromethyl)phenylsulf-onyl)-2,3-dihydro-1H-pyrido[2,3-b][1,4]oxazine-7-carboxamide], the EC50 at human CB1 receptor, at rat CB2 receptor and at human CB2 receptor (setting [1]) was over 30 µM in each case.
For the compound `O=C(c1cnc2c(c1)N(S(=O)(=O)c1ccc(C(F)(F)F)cc1)CCO2)N1CCS(=O)(=O)CC1` [Example 52, 1′,1′-dioxide-thiomorpholino(1-(4-(trifluoromethyl)phenylsulf-onyl)-2,3-dihydro-1H-pyrido[2,3-b][1,4]oxazin-7-yl)methanone], the half-maximal effective concentration (EC50) on human CB1 receptor, on rat CB2 receptor and on human CB2 receptor (setting [1]) was over 30 µM in each case.
For the compound `CC(C)(C)NC(=O)c1cnc2c(c1)N(S(=O)(=O)c1ccc(Cl)c(Cl)c1)CCO2` [Example 55, N-tert-butyl-1-(3,4-dichlorophenylsulfonyl)-2,3-dihydro-1H-pyrido[2,3-b][1,4]oxazine-7-carboxamide], the values for the concentration giving a half-maximal response (EC50) on human CB1 receptor, on rat CB2 receptor and on human CB2 receptor were over 30 µM, at most 0.03 µM and at most 0.03 µM, respectively.
With `CCC(C)(C)NC(=O)c1cnc2c(c1)N(S(=O)(=O)c1ccc(C(F)(F)F)cc1)CCO2` [Example 66, N-tert-pentyl-1-(4-(trifluoromethyl)phenylsulf-onyl)-2,3-dihydro-1H-pyrido[2,3-b][1,4]oxazine-7-carboxamide], the EC50 was over 30 µM on human CB1 receptor, at most 0.03 µM at rat CB2 receptor and at most 0.03 µM at human CB2 receptor.
As for `O=C(O)[C@H]1CCCCN1C(=O)c1cnc2c(c1)N(S(=O)(=O)c1ccc(C(F)(F)F)cc1)CCO2` [Example 78, (R)-1-(1-(4-(trifluoro-methyl)phenylsulfonyl)-2,3-dihydro-1H-pyrido-[2,3-b][1,4]oxazine-7-carbonyl)piperidine-2-carboxylic acid], the EC50 at human CB1 receptor, on rat CB2 receptor and on human CB2 receptor (setting [1]) was over 30 µM in each case.
On to `CC(C)(C)NC(=O)c1cnc2c(c1)N(S(=O)(=O)c1ccc(Cl)s1)CCO2` [Example 94, N-tert-butyl-1-(5-chlorothiophen-2-ylsulfonyl)-2,3-dihydro-1H-pyrido[2,3-b][1,4]oxazine-7-carboxamide], for which the EC50 on human CB1 receptor, on rat CB2 receptor and on human CB2 receptor (setting [1]) was over 30 µM throughout.
For `CS(=O)(=O)N1CCN(C(=O)c2cnc3c(c2)N(S(=O)(=O)c2ccc(Cl)c(Cl)c2)CCO3)CC1` [Example 116, (1-(3,4-dichloro-phenylsulfonyl)-2,3-dihydro-1H-pyrido[2,3-b][1,4]oxazin-7-yl)(4-(methylsulfonyl)piperazin-1-yl)methanone], the EC50 at human CB1 receptor, at rat CB2 receptor and on human CB2 receptor (setting [1]) was over 30 µM each time.
Turning to `O=C(c1cnc2c(c1)N(S(=O)(=O)c1ccc(Cl)c(Cl)c1)CCO2)N1CCN(S(=O)(=O)c2ccccc2)CC1` [Example 118, (1-(3,4-dichlorophenyl-sulfonyl)-2,3-dihydro-1H-pyrido[2,3-b][1,4]oxazin-7-yl)(4-(phenylsulfonyl)piperazin-1-yl)methanone], the “inverse agonist mark, rat CB2 receptor” value on rat CB2 receptor is given as 118*, 120, 123, 125, 127, 134, 143, 145, 161, 174, 175, 176, 198,. On human CB2 receptor (setting [1]), the EC50 is over 30 µM.
For the compound `CN(C)S(=O)(=O)N1CCN(C(=O)c2cnc3c(c2)N(S(=O)(=O)c2ccc(Cl)c(Cl)c2)CCO3)CC1` [Example 119, 4-(1-(3,4-dichlorophenylsulfonyl)-2,3-dihydro-1H-pyrido [2,3-b][1,4]oxazine-7-carbonyl)-N,N-dimethyl piperazine-1-sulfonamide], the EC50 at human CB1 receptor, on rat CB2 receptor and at human CB2 receptor (setting [1]) was over 30 µM throughout.
Consider `O=C(N[C@@H]1CCCC[C@H]1O)c1cnc2c(c1)N(S(=O)(=O)c1ccc(Cl)c(Cl)c1)CCO2` [Example 135, 1-(3,4-dichlorophenyl-sulfonyl)-N-((1R,2R)-2-hydroxycyclohexyl)-2,3-dihydro-1H-pyrido[2,3-b][1,4]oxazine-7-carboxamide], for which the EC50 was over 30 µM on human CB1 receptor, at most 0.03 µM on rat CB2 receptor and over 30 µM on human CB2 receptor.
Regarding `CCC(C)(C)NC(=O)c1cnc2c(c1)N(S(=O)(=O)N1CCC(C(F)(F)F)CC1)CCO2` [Example 151, N-tert-pentyl-1-(4-(trifluoromethyl)piperidin-1-ylsulfonyl)-2,3-dihydro-1H-pyrido[2,3-b][1,4]oxazine-7-carboxamide], the EC50 on rat CB2 receptor and at human CB2 receptor was at most 0.03 µM each time.
Regarding `CC(C)(C)c1cc(NC(=O)c2cnc3c(c2)N(S(=O)(=O)N2CCC(C(F)(F)F)CC2)CCO3)no1` [Example 154, N-(5-tert-butylisoxazol-3-yl)-1-(4-(trifluoromethyl)piperidin-1-ylsulfonyl)-2,3-dihydro-1H-pyrido[2,3-b][1,4]oxazine-7-carboxamide], on rat CB2 receptor, the concentration giving a half-maximal response (EC50) was at most 0.03 µM and the “inverse agonist mark, rat CB2 receptor” value was 146, 148, 149, 150, 151, 152, 153*, 154*, 155, 156, 157, 163, 164,. Further, at human CB2 receptor, the “inverse agonist mark, human CB2 receptor” value is listed as 121, 124, 131, 136, 137, 138, 139, 146, 150, 152, 154*, 155, 157,.
Take `CC(C)(C)NC(=O)c1cnc2c(c1)N(S(=O)(=O)N1CCC(F)(F)CC1)CCO2` [Example 156, N-tert-butyl-1-(4,4-difluoropiperidin-1-ylsulfonyl)-2,3-dihydro-1H-pyrido[2,3-b][1,4]oxazine-7-carboxamide]: the half-maximal effective concentration (EC50) at rat CB2 receptor and on human CB2 receptor was at most 0.03 µM each time.
Take `CC(C)(C)c1cc(NC(=O)c2cnc3c(c2)N(S(=O)(=O)N2CCC(F)(F)C2)CCO3)no1` [Example 165, N-(5-tert-butylisoxazol-3-yl)-1-(3,3-difluoro-pyrrolidin-1-ylsulfonyl)-2,3-dihydro-1H-pyrido-[2,3-b][1,4]oxazine-7-carboxamide]: the “inverse agonist mark, rat CB2 receptor” value on rat CB2 receptor is 108, 114, 117, 122, 126, 128, 129, 130, 141, 147, 162*, 165*, 179,. Also, the EC50 on human CB2 receptor was over 30 µM.
For the compound `CC(C)(C)NC(=O)c1cnc2c(c1)N(S(=O)(=O)N1CCC(Cl)CC1)CCO2` [Example 184, N-tert-butyl-1-(4-chloropiperidin-1-ylsulfonyl)-2,3-dihydro-1H-pyrido[2,3-b][1,4]oxazine-7-carboxamide], the concentration giving a half-maximal response (EC50) at rat CB2 receptor was at most 0.03 µM; on human CB2 receptor, over 30 µM.
Regarding `CCC(C)(C)NC(=O)c1cnc2c(c1)N(S(=O)(=O)N1CCC(Cl)CC1)CCO2` [Example 185, 1-(4-chloropiperidin-1-ylsulfonyl)-N-tert-pentyl-2,3-dihydro-1H-pyrido[2,3-b][1,4]oxazine-7-carboxamide], the figures for the 50% effective concentration (EC50) at rat CB2 receptor and at human CB2 receptor were at most 0.03 µM and over 30 µM, respectively.
Take `CC(C)(CO)CNC(=O)c1cnc2c(c1)N(S(=O)(=O)N1CCC(Cl)CC1)CCO2` [Example 187, 1-(4-chloropiperidin-1-ylsulfonyl)-N-(3-hydroxy-2,2-dimethylpropyl)-2,3-dihydro-1H-pyrido[2,3-b][1,4]oxazine-7-carboxamide]: the figures for the EC50 on rat CB2 receptor and on human CB2 receptor were at most 0.03 µM and over 30 µM, respectively.
For the compound `CC(C)(CO)CNC(=O)c1cnc2c(c1)N(S(=O)(=O)N1CC(F)(F)C1)CCO2` [Example 196, 1-(3,3-difluoroazetidin-1-ylsulfonyl)-N-(3-hydroxy-2,2-dimethylpropyl)-2,3-dihydro-1H-pyrido[2,3-b][1,4]oxazine-7-carboxamide], the EC50 on rat CB2 receptor was at most 0.03 µM; on human CB2 receptor, over 30 µM.
Regarding `O=C(O)CC1COCCN1C(=O)c1cnc2c(c1)N(S(=O)(=O)c1ccc(C(F)(F)F)cc1)CCO2` (stereo not shown) [Example 207], the 50% effective concentration (EC50) is over 30 µM at rat CB2 receptor (change in intracellular cAMP, CHO-K1 rCB2 cells, class AR, read-out: EC50 values for rat CB2 receptor) and over 30 µM at human CB2 receptor (setting [1]).
With `CC(C)(C)c1nnc(-c2cnc3c(c2)N(S(=O)(=O)c2ccc(F)cc2)CCO3)o1` [Example 212, 7-(5-tert-butyl-1,3,4-oxadiazol-2-yl)-1-(4-fluorophenylsulfonyl)-2,3-dihydro-1H-pyrido[2,3-b][1,4]oxazine], the EC50 at rat CB2 receptor and at human CB2 receptor was at most 0.03 µM in each case.
